Assay results reported in ChEMBL document CHEMBL5537180, “Discovery of Novel Aminobutanoic Acid-Based ASCT2 Inhibitors for the Treatment of Non-Small-Cell Lung Cancer” (J Med Chem, 2024).
Calls of active or inactive are those of the source. The rule behind the calls is not given here.

Columns and labels:
[1] = target: T1, Neutral amino acid transporter B(0) (Homo sapiens) (UniProt Q15758); assay: Inhibition of ASCT2 in human A549 cells assessed as reduction in [13C]-Gln uptake at 50 uM relative to control; type: cell-based
T1 sequence (whole entry): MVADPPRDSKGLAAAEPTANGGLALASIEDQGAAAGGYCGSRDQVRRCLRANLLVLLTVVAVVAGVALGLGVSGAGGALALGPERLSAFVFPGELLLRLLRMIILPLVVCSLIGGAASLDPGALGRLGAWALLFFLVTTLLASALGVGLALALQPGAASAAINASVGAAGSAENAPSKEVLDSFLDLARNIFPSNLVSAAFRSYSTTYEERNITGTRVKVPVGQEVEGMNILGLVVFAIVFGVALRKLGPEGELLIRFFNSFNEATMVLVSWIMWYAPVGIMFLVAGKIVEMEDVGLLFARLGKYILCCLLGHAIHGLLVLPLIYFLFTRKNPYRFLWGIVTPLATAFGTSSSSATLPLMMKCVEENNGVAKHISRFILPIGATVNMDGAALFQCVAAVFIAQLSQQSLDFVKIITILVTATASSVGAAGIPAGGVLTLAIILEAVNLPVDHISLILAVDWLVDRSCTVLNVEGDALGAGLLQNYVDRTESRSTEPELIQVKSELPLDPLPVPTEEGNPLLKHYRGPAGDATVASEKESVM

[2] = Metabolic stability in rat liver microsomes assessed as half life; type: ADME, Microsome
[3] = Metabolic stability in rat liver microsomes assessed as intrinsic clearance; type: ADME, Microsome; conditions: read-out: CLH
[4] = tested on: A549; assay: Inhibition of colony formation in human A549 cells measured after 7 to 10 days by crystal violet staining analysis; type: functional, cell-based; conditions: dose 5-10 µM, time 7-10 day
[5] = tested on: A549; assay: Induction of oxidative stress in human A549 cells assessed as upregulation of ROS production incubated for 24 hrs by DCFH-DA staining based flow cytometry analysis; type: functional, cell-based; conditions: dose 5-10 µM
[6] = tested on: Cell membrane; assay: Induction of mitochondrial membrane potential loss in human A549 cells assessed as […] aggregates at 10 uM incubated for 24 hrs by JC-1 staining based flow cytometry analysis (reference value: 93.8%); type: cell membranes
[7] = tested on: Cell membrane; assay: Induction of mitochondrial membrane potential loss in human A549 cells assessed as […] aggregates incubated for 24 hrs by JC-1 staining based flow cytometry analysis; type: cell membranes; conditions: dose 5-10 µM
[8] = tested on: A549; assay: Induction of apoptosis in human A549 cells assessed as downregulation of c-Myc expression at 5 to 10 uM incubated for 24 hrs by Western blot analysis; type: functional, cell-based; conditions: dose 5-10 µM
[9] = Cmax in Sprague-Dawley rat at 10 mg/kg, ip incubated for 24 hrs by LC-MS/MS analysis; type: ADME, organism-based; conditions: in vivo
[10] = AUC (0 to t) in Sprague-Dawley rat at 10 mg/kg, ip incubated for 24 hrs by LC-MS/MS analysis; type: ADME, organism-based; conditions: in vivo
[11] = tested on: A549; assay: Inhibition of AKT/mTORC signalling in human A549 cells assessed as decrease in mTORC1 level at 5 to 10 uM measured after 24 hrs by Western blot analysis; type: cell-based; conditions: dose 5-10 µM
[12] = tested on: A549; assay: Induction of autophagy in human A549 cells assessed as downregulation of AKT phosphorylation level at 5 to 10 uM measured after 24 hrs by Western blot analysis; type: functional, cell-based; conditions: dose 5-10 µM
[13] = tested on: A549; assay: Induction of autophagy in human A549 cells assessed as increase in LC3 II expression at 5 to 10 uM measured after 24 hrs by Western blot analysis; type: functional, cell-based; conditions: dose 5-10 µM
[14] = tested on: A549; assay: Antitumor activity against human A549 cells xenografted in BALB/c nude mouse assessed as inhibition of tumor volume at 25 to 50 mg/kg, ip measured daily for 3 weeks; type: functional, organism-based; conditions: dose 25-50 mg/kg
[15] = tested on: A549; assay: Antitumor activity against human A549 cells xenografted in BALB/c nude mouse assessed as decrease in tumor weight at 25 to 50 mg/kg, ip measured daily for 3 weeks; type: functional, organism-based; conditions: dose 25-50 mg/kg
[16] = Toxicity in BALB/c nude mouse assessed as effect on heart at 25 to 50 mg/kg, ip measured after 3 weeks by H and E staining based analysis; type: organism-based; conditions: in vivo, 504 h, dose 25-50 mg/kg
[17] = Toxicity in BALB/c nude mouse assessed as effect on spleen at 25 to 50 mg/kg, ip measured after 3 weeks by H and E staining based analysis; type: organism-based; conditions: in vivo, 504 h, dose 25-50 mg/kg
[18] = Toxicity in BALB/c nude mouse assessed as effect on lung at 25 to 50 mg/kg, ip measured after 3 weeks by H and E staining based analysis; type: organism-based; conditions: in vivo, 504 h, dose 25-50 mg/kg
[19] = Toxicity in BALB/c nude mouse assessed as effect on kidney at 25 to 50 mg/kg, ip measured after 3 weeks by H and E staining based analysis; type: organism-based; conditions: in vivo, 504 h, dose 25-50 mg/kg
[20] = target: T2, Sodium-coupled neutral amino acid symporter 2 (Homo sapiens) (UniProt Q96QD8); assay: Inhibition of SNAT2 (unknown origin) overexpressed in HEK293 cells assessed as reduction in [13C]-Gln uptake preincubated for 5 mins followed by substrate addition and measured after 15 mins; type: cell-based; conditions: time 20.0 min
T2 sequence (whole entry): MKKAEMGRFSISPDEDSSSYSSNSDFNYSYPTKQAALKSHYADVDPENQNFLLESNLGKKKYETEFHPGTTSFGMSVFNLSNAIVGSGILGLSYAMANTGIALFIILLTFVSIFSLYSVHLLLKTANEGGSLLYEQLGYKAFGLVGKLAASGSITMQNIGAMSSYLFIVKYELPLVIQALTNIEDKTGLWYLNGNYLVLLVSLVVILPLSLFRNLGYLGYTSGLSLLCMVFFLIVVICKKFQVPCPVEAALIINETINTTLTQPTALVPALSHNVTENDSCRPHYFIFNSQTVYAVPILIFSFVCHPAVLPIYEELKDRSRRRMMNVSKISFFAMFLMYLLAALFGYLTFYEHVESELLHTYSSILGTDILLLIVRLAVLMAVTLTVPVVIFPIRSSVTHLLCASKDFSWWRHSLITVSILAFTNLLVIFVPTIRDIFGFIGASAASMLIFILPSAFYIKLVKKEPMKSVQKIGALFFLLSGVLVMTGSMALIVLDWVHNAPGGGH

[21] = target: Large neutral amino acids transporter small subunit 1 (Homo sapiens) (UniProt Q01650); assay: Inhibition of LAT1 (unknown origin) overexpressed in human A549 cells assessed as reduction in [13C]-Gln uptake preincubated for 5 mins followed by substrate addition and measured after 15 mins; type: cell-based; conditions: time 20.0 min
Sequence of Large neutral amino acids transporter small subunit 1 (Homo sapiens) (Q01650 whole entry): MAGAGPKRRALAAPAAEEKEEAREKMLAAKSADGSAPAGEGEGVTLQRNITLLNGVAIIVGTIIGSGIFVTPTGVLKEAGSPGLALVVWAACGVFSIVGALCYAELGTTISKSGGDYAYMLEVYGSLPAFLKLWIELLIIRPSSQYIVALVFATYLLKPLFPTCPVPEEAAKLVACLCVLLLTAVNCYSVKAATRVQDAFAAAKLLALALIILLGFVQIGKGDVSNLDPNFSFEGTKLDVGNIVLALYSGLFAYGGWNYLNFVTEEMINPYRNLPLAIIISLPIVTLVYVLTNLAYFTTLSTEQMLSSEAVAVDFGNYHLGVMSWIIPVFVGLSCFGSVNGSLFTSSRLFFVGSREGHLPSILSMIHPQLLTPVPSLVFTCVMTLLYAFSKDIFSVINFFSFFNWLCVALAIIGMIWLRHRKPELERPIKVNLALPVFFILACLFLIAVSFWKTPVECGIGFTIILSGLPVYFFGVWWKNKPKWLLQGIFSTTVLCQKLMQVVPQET

[22] = tested on: A549; assay: Inhibition of Gln uptake in human A549 cells assessed as reduction in intracellular glutamate level incubated for 24 hrs by LC-MS/MS analysis; type: functional, cell-based
[23] = tested on: A549; assay: Inhibition of Gln uptake in human A549 cells assessed as reduction in fumarate level incubated for 24 hrs by LC-MS/MS analysis; type: functional, cell-based
[24] = tested on: A549; assay: Inhibition of Gln uptake in human A549 cells assessed as reduction in malate level incubated for 24 hrs by LC-MS/MS analysis; type: functional, cell-based
[25] = tested on: NSCLC; assay: Antiproliferative activity against human NSCLC cells cultured as 2566 organoids assessed as cell viability incubated for 96 hrs by Celltiter-glo viability assay; type: functional, cell-based
[26] = tested on: NSCLC; assay: Antiproliferative activity against human NSCLC cells cultured as 2422 organoids assessed as cell viability incubated for 96 hrs by Celltiter-glo viability assay; type: functional, cell-based

| inhibition [1] [%] | half-life [2] [min] | microsomal CLint [3] [µL/min/mg] | Activity [6] [%] | Activity [7] | Cmax [9] [ng/mL] | AUC(0-t) at 24 h [10] [ng·h/mL] | inhibition [20] | SMILES | inhibition [4] | Activity [5] | Activity [8] | inhibition [11] | Activity [12] | Activity [13] | Activity [14] | Activity [15] | Activity [16] | Activity [17] | Activity [18] | Activity [19] | also measured |
| --- | --- | --- | --- | --- | --- | --- | --- | --- | --- | --- | --- | --- | --- | --- | --- | --- | --- | --- | --- | --- | --- |
| 90.8 | 37.1 | 37.5 | 82.4 | Dose-Dependent Effect | 323 | 2670 | inactive | N[C@@H](CCN(Cc1ccccc1OCC#Cc1ccc(Cl)cc1)Cc1ccccc1OCC#Cc1ccc(Cl)cc1)C(=O)O | Dose-Dependent Effect | Dose-Dependent Effect | Active | Active | Active | Active | Active | Active | Toxic | Toxic | Toxic | Toxic | inhibition [21]: inactive; inhibition [22]: Active; inhibition [23]: Active; inhibition [24]: Active; IC50 [25]: 5.09 µM; IC50 [26]: 7.34 µM |
| 55.6 | 167 | 8.27 | 60.3 | Dose-Dependent Effect | 874 | 13800 | inactive | CC(C)(C)c1ccc(OCC#Cc2ccccc2)c(CN(CC[C@H](N)C(=O)O)Cc2cc(C(C)(C)C)ccc2OCC#Cc2ccccc2)c1 | Dose-Dependent Effect | Dose-Dependent Effect | Active | Active | Active | Active | Active | Active | Toxic | Toxic | Toxic | Toxic | inhibition [21]: inactive; inhibition [22]: Active; inhibition [23]: Active; inhibition [24]: Active; IC50 [25]: 8.08 µM; IC50 [26]: 0.12 µM |
